Experiment [1] deals with SD rats. Kind of experiment: Open field test, chlorpromazine-induced depression model. It is filed as in vivo. To be noted: 6 mg/kg. How it is done: (§1) Male SD rats weighing between 180 g to 200 g were randomly divided into 6 groups, with 8 rats in each group, as follows: Normal group; Chlorpromazine group; Positive control group (Amitriptyline, 6 mg/kg); I-11 low dose group (3 mg/kg); I-11 medium dose group (6 mg/kg); I-11 high dose group (12 mg/kg); In the normal group, rats were maintained under normal conditions. In other groups, rats were intraperitoneally injected with chlorpromazine (0.2 mg/kg) once a day for three days to induce the model. After successful modeling, the respective drugs were administered according to the group. After two weeks of continuous administration, sucrose consumption test, open field test, and forced swimming test were conducted sequentially. After the sucrose preference test, we conducted an open field test on the experimental animals.

Experiment [2] deals with SD rats. In words: Forced swimming test, chlorpromazine-induced depression model. It is filed as in vivo. The procedure: as §1, with “sequentially.” for “sequentially. After the sucrose preference test, we conducted an open field test on the experimental animals.”
Experiment [3] deals with SD rats. Kind of experiment: Sucrose preference test, chlorpromazine-induced depression model. It counts as in vivo. The procedure:
Male SD rats weighing between 180 g to 200 g were randomly divided into 6 groups, with 8 rats in each group, as follows: Normal group; Chlorpromazine group; Positive control group (Amitriptyline, 6 mg/kg); I-11 low dose group (3 mg/kg); I-11 medium dose group (6 mg/kg); I-11 high dose group (12 mg/kg); In the normal group, rats were maintained under normal conditions. In other groups, rats were intraperitoneally injected with chlorpromazine (0.2 mg/kg) once a day for three days to induce the model. After successful modeling, the respective drugs were administered according to the group. After two weeks of continuous administration, sucrose consumption test, open field test, and forced swimming test were conducted sequentially. The American Psychiatric Association considers a significant feature of depression to be the decrease in reward responsiveness, indicating a loss of pleasure. The sucrose preference test is a well-established measure for assessing reward responsiveness in experimental animals.

Another experiment has as its target T1, FAAH (Homo sapiens, UniProt O00519).
T1 construct: purchased
T1 sequence (O00519 1-579): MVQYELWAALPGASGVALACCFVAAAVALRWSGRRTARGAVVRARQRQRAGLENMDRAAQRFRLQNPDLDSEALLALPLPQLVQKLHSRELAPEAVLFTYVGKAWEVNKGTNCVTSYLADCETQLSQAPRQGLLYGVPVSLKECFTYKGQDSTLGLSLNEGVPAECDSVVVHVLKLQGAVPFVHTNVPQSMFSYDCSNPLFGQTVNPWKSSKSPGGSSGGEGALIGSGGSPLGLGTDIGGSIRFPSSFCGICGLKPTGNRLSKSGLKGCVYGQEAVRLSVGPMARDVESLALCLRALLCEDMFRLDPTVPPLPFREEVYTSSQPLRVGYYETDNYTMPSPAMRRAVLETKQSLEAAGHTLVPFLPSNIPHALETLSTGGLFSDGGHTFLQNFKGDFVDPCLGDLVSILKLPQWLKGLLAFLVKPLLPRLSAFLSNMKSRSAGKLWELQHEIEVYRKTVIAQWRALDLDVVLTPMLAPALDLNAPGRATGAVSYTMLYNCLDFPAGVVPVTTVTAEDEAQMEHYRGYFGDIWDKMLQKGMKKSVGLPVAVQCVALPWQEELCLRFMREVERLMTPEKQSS
Kind of experiment: In vitro FAAH enzyme inhibition activity assay (FAAH assay kit, fluorescently labeled substrate). It counts as biochemical. How it is done: FAAH hydrolyzes AEA to form ethanolamine within cells. Different enzyme activities catalyze the formation of varying amounts of products from a fixed amount of substrate. The enzyme activity level can be assessed by measuring the amount of products generated. Based on this principle, experiments were designed in this invention. According to the FAAH assay kit instructions, a certain concentration of FAAH was diluted and added to a buffer solution along with a fluorescently labeled substrate. Compounds of various concentrations were then added, along with blank control groups and JZL-195 positive control groups. After the reaction, fluorescence analysis was performed using a plate reader, and the inhibition rate was calculated.

The next experiment relates to mice. In words: Acetic acid writhing test in mice (analgesic activity). It counts as in vivo. To be noted: 5 mg/kg s.c. How it is done: Using the acetic acid writhing test in mice as a pain model to evaluate the analgesic activity of compound I-11. The experimental animal information and procedures are outlined below.
Healthy ICR mice, of clean grade, weighing 20-25 g. The animal facility complies with the requirements of a clean laboratory, with a temperature of 20-22° C., humidity of 40%˜70%, and controlled lighting on a 12-hour light/12-hour dark cycle (lighting from 8:00 to 20:00). Mice are housed in plastic cages (280×150×180 mm) with 10 mice per cage, separated by gender, and provided ad libitum access to food and water. The diet consists of experimental rodent pellets, and the drinking water is city tap water sterilized by high-temperature autoclaving. Mice are allowed a 7-day acclimatization period. All procedures involving animals are conducted following the guidelines of the International Association for the Study of Pain Ethics Committee. Mice are housed in the animal facility upon purchase.
Glacial acetic acid and physiological saline were obtained from the China Pharmaceutical University reagent repository. Compound I-11 was a laboratory-synthesized compound (purity>98%).
Mice were marked with saturated bitter solution, with the left front limb marked as number 1, left hind limb as number 2, right front limb as number 3, right hind limb as number 4, and head as number 5. Combinations such as head with left front limb as number 6, head with left hind limb as number 7, head with right front limb as number 8, head with right hind limb as number 9, and tail as number 10 were used for identification. Animals were divided into groups, with n=10 in each group, evenly distributed between males and females.
The experiment employed the acetic acid-induced writhing test in mice to investigate the analgesic activity of the samples. […] The number of writhing movements and the latency period of mice were observed and recorded 15 minutes after acetic acid injection, and the analgesic percentage was calculated. […]

SMILES strings stand for the structures.

As to `CN(C)CCC=C1c2ccccc2CCc2ccccc21` [Amitriptyline], in the experiment with SD rats [1], the Frequency of grooming amounted to 4.3 ± 0.3 n, the Frequency of upright is reported as 10.6 ± 2.2 n, the “Times passing the grid” value is on record as 58.9 ± 2.2 n and the “Total time in center” value came to 4.6 ± 0.6 s. Moreover, in the experiment on SD rats [2] (Amitriptyline 6 mg/kg, I-11 medium and high dose, p<0.05), the “immobility time versus model (in words)” value is listed as “reduce the immobility time”. For the same molecule, in the experiment with SD rats [2] (model rats, 6 mg/kg), the “Immobility Time” value was 88.47 ± 4.64 s. The “sucrose intake compared to the model group (in words)” value in the experiment with SD rats [3] (high-dose I-11 (12 mg/kg), amitriptyline 6 mg/kg) is given as “significant increase in sucrose intake”. Also, in the experiment with SD rats [3] (model rats, 6 mg/kg, two weeks of administration), the Sucrose intake ratio worked out at 78.6 ± 4.6 %. Molecule `Cn1c(C(=O)N2CCC(C(=O)c3ccncc3)CC2)cc2cc(Cl)ccc21` [Compound I-1] came in with an IC50 on FAAH (values given in μm [sic]) of 27900 nM.

As for `Cn1c(C(=O)N2CCC(C(=O)c3ccncc3)CC2)cc2ccccc21` [Compound I-2], it took 14200 nM to reach half-maximal inhibition at FAAH (values given in μm [sic]) (IC50).

In the case of `Cn1c(C(=O)N2CCC(C(=O)c3ccccn3)CC2)cc2cc(Cl)ccc21` [Compound I-3], the concentration for half-maximal inhibition (IC50) at FAAH (values given in μm [sic]) turned out to be 13500 nM. In turn, `O=C(c1ccccn1)C1CCN(C(=O)c2cc3ccccc3o2)CC1` [Compound I-4, (1-(benzofuran-2-carbonyl)piperidin-4-yl)(pyridin-2-yl)methanone] gave a half-maximal inhibitory concentration (IC50) at FAAH (values given in μm [sic]) of 10100 nM. Still for that read-out and setting: then `O=C(c1ccccn1)C1CCN(C(=O)c2cnc3ccccc3c2)CC1` [Compound I-5], with 125000 nM. `O=C(c1ccccn1)C1CCN(Cc2cnc3ccccc3c2)CC1` [Compound I-6, Pyridin-2-yl(1-(quinolin-3-ylmethyl)piperidin-4-yl)methanone] showed an IC50 on FAAH (values given in μm [sic]) of 132000 nM. For the molecule `Cn1c(C(=O)N2CCC(C(=O)c3ncco3)CC2)cc2cc(Cl)ccc21` [Compound I-7, (5-Chloro-1-methyl-1H-indol-2-yl)(4-(oxazole-2-carbonyl)piperidin-1-yl) methanone], the IC50 against FAAH (values in nm) was 77.9 nM. Take `Cn1c(C(=O)N2CCC(C(=O)c3nccs3)CC2)cc2cc(Cl)ccc21` [Compound I-8, (5-chloro-1-methyl-1H-indol-2-yl)(4-(thiazol-2-carbonyl)piperidin-1-yl)methanone]: the IC50 on FAAH (values given in μm [sic]) amounted to 1030 nM. For the molecule `Cn1c(C(=O)N2CCC(C(=O)c3nc4ccccc4s3)CC2)cc2cc(Cl)ccc21` [Compound I-9], 279 nM corresponded to half-maximal inhibition at FAAH (values in nm) (IC50). The molecule `Cn1c(C(=O)N2CCC(C(=O)c3ncc(-c4ccccc4)o3)CC2)cc2cc(Cl)ccc21` [Compound I-10, (5-chloro-1-methyl-1H-indol-2-yl)-(4-(5-phenyl-oxazol-2-carbonyl)piperidin-1-yl)methanone] came in with an IC50 at FAAH (values in nm) of 112 nM. The same measure, in the same setting: as for `Cn1c(C(=O)N2CCC(C(=O)c3nnc(-c4cccc(Cl)c4)o3)CC2)cc2cc(Cl)ccc21` [Compound I-13, (5-chloro-1-methyl-1H-indol-2-yl)(4-(5-(3-chlorophenyl)-1,3,4-oxadiazol-2-carbonyl)piperidin-1-yl)methanone], the figure is 89.7 nM; as for `Cn1c(C(=O)N2CCC(C(=O)c3nnc(-c4ccco4)o3)CC2)cc2cc(Cl)ccc21` [Compound I-15, (5-chloro-1-methyl-1H-indol-2-yl)(4-(5-(furan-2-yl)-1,3,4-oxadiazol-2-carbonyl)piperidin-1-yl)methanone], 3.11 nM; as for `Cn1c(C(=O)N2CCC(C(=O)c3nnc(-c4cccs4)o3)CC2)cc2cc(Cl)ccc21` [Compound I-16, (5-chloro-1-methyl-1H-indol-2-yl) (4-(5-(thiophene-2-yl)-1,3,4-oxadiazol-2-carbonyl)piperidin-1-yl)methanone], 12.9 nM. The same measure, in the same setting: then `O=C(Oc1ccc([N+](=O)[O-])cc1)N1CCN(Cc2cccc(Oc3ccccc3)c2)CC1` [JZL-195, reference compound], with 2.81 nM. For `CN1CC[C@]23c4c5ccc(O)c4O[C@H]2[C@@H](O)C=C[C@H]3[C@H]1C5` [Morphine], in the experiment with mice, the “Inhibition (analgesic percentage, writhing)” value was determined as 100.0% and the latency period is on record as 0 s. Also, in the experiment on mice (within 15 minutes after acetic acid), the writhing count is given as 0.

The term IC50 denotes the concentration that inhibits the measured activity by half. Low values mean higher potency, high ones lower potency.
